Measurements from US20230077723A1, “N-SUBSTITUTED-3,4-(FUSED 5-RING)-5-PHENYL-PYRROLIDINE-2-ONE COMPOUNDS AS INHIBITORS OF ISOQC AND/OR QC ENZYME” (Scenic Immunology B.V., priority 2019, published 2023).

Experiments:
[1] = tested on: pyroglutamylated CD47 (pE-CD47) in KBM7 cells; experiment: Assay 6 - cell-based potency assay (pE-CD47 CC2C6 staining vs total CD47); parameters: species or system human; conditions: Homo sapiens, KBM-7, 72 h, CC2C6 signal, read-out: Cell Pot. Assay No. 6
Protocol: Cells were spun for 4 minutes at 1500 rpm and washed once with PBS/0.5% BSA. Cells were spun down again and the supernatant was removed and incubated in 100 uL antibody staining solution (PBS/0.5% BSA/0.1 μg/mL DAPI (4′,6-diamidino-2-phenylindole, ThermoFisher Scientific) and a mixture of 1:500 FITC-conjugated anti-human CD47 clone 2D3, which recognizes total CD47 irrespective of its pyroglutamylation state, and 1:500 Alexa647-conjugated anti-human CD47 clone CC2C6, which specifically detects pyroglutamylated CD47) for 2 hours at 4° C. Next, the cells were spun down and washed twice with 2×150 μL PBS/0.5% BSA to remove unbound antibody. Cells were again spun down and taken up in 300 μL FACS buffer before analysis on a Celesta FACS machine (BD Biosciences).
KBM7 cells (Kotecki et al., 1999) were infected with lentivirus produced by transfecting pSCNC-LentiCRISPR-QPCTL or pSCNC-LentiCRISPR-CD47 into HEK-293T cells according to standard protocols. After 24 hours incubation, cells were selected with puromycin (Invivogen, 1 μg/mL) for 48 hours. Cells were stained for total CD47 and pE-CD47 and QPCTL k.o. cells were sorted out as negative for pE-CD47, and CD47 k.o. cells as negative for total CD47, using a FACSAria III and FACS Diva software (BD Biosciences).
In order to test compounds for their effect on pyroglutamylation in live cells, 25000 KBM7 cells per well were seeded in a 96-well U-bottom plate in 150 μl IMDM/10% FCS/1% Pen/Strep medium and a 10-point 2-fold dilution range of test compounds. After 72 hours incubation at 37° C., 5% CO2, cells were stained for total CD47 and pE-CD47 and analyzed on a BD Celesta using FACS Diva software (BD Biosciences). Cells gated for DAPI negativity were recorded and the median fluorescence intensity (MFI) of each sample was transformed to linearly scale between the MFI's of wildtype and CD47 knockout cells (in case of the 2D3 antibody) and the wildtype and QPCTL knockout cells (in case of the CC2C6 antibody). IC50's were calculated by 3 parameter logistic regression of the CC2C6 signal vs. compound concentration, where the top of the sigmoidal curve was fixed at 1, using R and the drc package (http://www.r-project.org, https://cran.r-project.org/web/packages/drc/index.html).

human isoQC (S53-L382) [2] = molecular target: T1, human isoQC (S53-L382) (Homo sapiens, UniProt Q9NXS2); experiment: Assay 1 - isoQC inhibition, fluorescent enzymatic assay (single concentration); type: biochemical; conditions: isoQC inhibition at 250 nM test compound; read-out: isoQc Inh. Assay No. 1
T1 construct: enzymatically active region of human isoQC (S53-L382; see, e.g., Huang et al., 2011); GST-Enterokinase site (N, cleaved yes); made in house; host or cells: E. coli
T1 sequence (Q9NXS2 53-382): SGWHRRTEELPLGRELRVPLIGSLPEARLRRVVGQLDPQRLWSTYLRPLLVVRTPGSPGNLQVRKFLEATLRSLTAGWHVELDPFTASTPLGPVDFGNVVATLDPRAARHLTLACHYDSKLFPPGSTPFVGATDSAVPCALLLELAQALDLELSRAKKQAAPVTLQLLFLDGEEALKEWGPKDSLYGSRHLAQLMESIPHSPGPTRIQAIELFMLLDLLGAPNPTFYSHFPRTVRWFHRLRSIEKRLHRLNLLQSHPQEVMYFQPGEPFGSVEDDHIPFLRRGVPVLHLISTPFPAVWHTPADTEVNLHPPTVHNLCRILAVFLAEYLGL
Protocol: Initially, isoQC inhibitory activity was measured at a single concentration in a fluorescent-based assay (Assay 1 below). In order to establish the inhibitory activity more quantitatively, IC50 values were obtained using a mass spectrometry-based assay where pyroglutamylation by either isoQC or QC was measured (Assays 2 and 4, respectively, below). Alternatively, IC50 values for isoQC or QC were obtained using a fluorescence-based assay (Assays 3 and 5 respectively, below).
(§1) The Golgi luminal, enzymatically active region of human isoQC (S53-L382; see, e.g., Huang et al., 2011) was obtained by expression in E. coli of an N-terminally GST-Enterokinase and C-terminally 6×His tagged construct in the pET41(+) vector and subsequent purification using talon beads and GST beads, enterokinase digestion and further purification with a final formulation in 25 mM Tris pH 8.0/150 mM NaCl/1 mM TCEP. Absence of pyroglutamylating activity in an enzymatic dead variant that was cloned, expressed, and purified in parallel ruled out that the purification strategy isolates any endogenously present pyroglutamylating activity.
Pyroglutamylation was measured by conversion of glutamine-4-amino-7-methylcoumarine (H-Gln-AMC, Bachem) to pyroglutamyl-AMC, which is subsequently a specific substrate for pyroglutamylaminopeptidase (pGAPase, Qiagen), releasing free AMC which can be fluorescently detected. For a typical inhibition assay, 15 μL 20 μM h-Gln-AMC (diluted from a 40 mM stock dissolved in 25 mM HEPES using 50 mM Tris-HCl pH 8.0) was pipetted into a 96-well plate on ice. Next, 7.5 μL 1 μM test compound (diluted from a 10 mM stock dissolved in DMSO using 50 mM Tris-HCl) was added. Finally, 7.5 μL, 3 ng/μL recombinant isoQC enzyme was added and the reaction mixture was incubated for 1 hour at 37° C. A 5 minute incubation at 98° C. was then performed to denature the isoQC enzyme and stop the reaction.
To detect the amount of pyroglutamyl-AMC formed, a 96-well plate was prepared with 25 μL 0.125 U/mL pGAPase enzyme diluted in 50 mM Tris-HCl pH 8.0 containing 10 mM dithiothreitol (DTT). 25 μL of the pyroglutamylation reaction mixture was transferred into the plate containing the pGAPase solutions while on ice. Once done, the plate was moved over to a Spectramax ID3 fluorescent plate-reader to monitor and record the maximum fluorescence at 380 nm excitation/450 nm emission over a period of 20 minutes while keeping the temperature at 37° C.
DMSO concentrations during the assay never exceeded 1% and activities were compared to controls containing only the same amount of DMSO and no test compound. […] Test compounds were reported as active when <40% of background corrected signal was measured as compared to DMSO controls.

human isoQC (S53-L382) [3] = molecular target: T1, human isoQC (S53-L382); experiment: Assay 2 - isoQC potency, mass spectrometry-based enzymatic potency assay; type: biochemical; conditions: mass spectrometry read-out, 7.5 nM isoQC, 10 μM H-Gln-AMC; read-out: isoQc Pot. Assay No. 2
Protocol: as §1
(§2) EC50's of test compounds were determined by incubating 11-point two-fold dilutions of test compound in 20 μL volumes in the presence of 7.5 nM isoQC and 10 μM H-Gln-AMC using 50 mM Tris-HCl pH 8.0 as assay buffer for 2 hours at room temperature before stopping the reaction by the addition of 2 volumes of methanol. Both the substrate and the product of this reaction were read out using an Agilent RapidFire microfluidic solid phase sample extraction system coupled to an AB Sciex API 4000 triple quadrupole mass spectrometer, in negative ion mode, at m/z of 301.9 and 284.9 respectively. The actual readout was defined as P/(S+P), where P is the product signal area and S the substrate signal area. EC50's were calculated by four parameter sigmoidal model fitting.

recombinant human QC = molecular target: T2, recombinant human QC (Homo sapiens, UniProt Q16769); experiment: Assay 4 - QC potency, mass spectrometry-based enzymatic potency assay; type: biochemical; conditions: mass spectrometry read-out; read-out: QC Pot. Assay No. 4
T2 construct: His6 (N); purchased R&D Systems
T2 sequence (Q16769 29-361): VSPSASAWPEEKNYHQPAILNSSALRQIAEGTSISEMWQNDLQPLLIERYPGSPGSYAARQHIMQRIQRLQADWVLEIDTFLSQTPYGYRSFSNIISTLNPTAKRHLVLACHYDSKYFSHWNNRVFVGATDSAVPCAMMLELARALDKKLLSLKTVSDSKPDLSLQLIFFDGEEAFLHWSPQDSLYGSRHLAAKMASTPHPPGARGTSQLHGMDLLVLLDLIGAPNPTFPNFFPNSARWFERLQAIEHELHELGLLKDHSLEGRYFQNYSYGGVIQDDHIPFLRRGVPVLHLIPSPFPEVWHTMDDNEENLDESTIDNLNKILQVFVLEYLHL
Protocol: as §2
EC50's of test compounds were determined in the same way as described in Assay 2 above, except that N-terminally His6-tagged recombinant human QC (R&D Systems) was used instead of isoQC.

Compound | IC50 [1] | inhibition at 0.25 µM (human isoQC (S53-L382) [2]) | IC50 (human isoQC (S53-L382) [3]) | IC50 (recombinant human QC)
CCCOc1ccc(C2c3c(nn(COC)c3C)C(=O)N2c2ccc3[nH]cnc3c2)cc1 (centres unmarked) [FRPPO-031] | 1000 to 5000 nM | > 40% | 25 to 100 nM | 100 to 5000 nM
CCCOc1ccc(C2c3c(nn(C(C)C)c3C)C(=O)N2c2ccc3[nH]cnc3c2)cc1 (centres unmarked) [FRPPO-030] | 1000 to 5000 nM | > 40% | 100 to 5000 nM | 100 to 5000 nM
Cc1c2c(nn1C)C(=O)N(c1ccc3[nH]cnc3c1)C2c1ccc(OCC(C)(F)F)c(F)c1F (centres unmarked) [FRPPO-019] | < 1000 nM | > 40% | 25 to 100 nM | < 25 nM
CCCOc1ccc(C2c3c(nn(CC4CC4)c3C)C(=O)N2c2ccc3[nH]cnc3c2)cc1 (centres unmarked) [FRPPO-034] | 1000 to 5000 nM | > 40% | 100 to 5000 nM | 100 to 5000 nM
CCCOc1ccc(C2c3c(nn(C)c3C)C(=O)N2c2ccc3[nH]cnc3c2)c(C)c1 (centres unmarked) [FRPPO-003] | < 1000 nM | > 40% | 25 to 100 nM | 100 to 5000 nM
Cc1c2c(nn1C)C(=O)N(c1ccc3[nH]cnc3c1)C2c1cc(F)cc(F)c1F (centres unmarked) [FRPPO-013] | 1000 to 5000 nM | > 40% | 25 to 100 nM | 25 to 100 nM
Cc1c2c(nn1C)C(=O)N(c1ccc3[nH]cnc3c1)C2c1ccc(N2CCCC2=O)cc1 (centres unmarked) [FRPPO-016] | 5000 to 50000 nM | > 40% | < 25 nM | 25 to 100 nM
CCCOc1ccc(C2c3c(nn(CC(F)F)c3C)C(=O)N2c2ccc3[nH]cnc3c2)cc1 (centres unmarked) [FRPPO-032] | 1000 to 5000 nM | ≤ 40% | 100 to 5000 nM | 100 to 5000 nM
Cc1c2c(nn1C)C(=O)N(c1ccc3[nH]cnc3c1)C2c1ccc(N2CCCCCC2=O)cc1 (centres unmarked) [FRPPO-011] | ≥ 50000 nM | > 40% | 25 to 100 nM | 100 to 5000 nM
COc1ccc(C2c3c(nn(C)c3C)C(=O)N2c2ccc3[nH]cnc3c2)cc1O (centres unmarked) [FRPPO-018] | 5000 to 50000 nM | > 40% | < 25 nM | < 25 nM
Cc1c2c(nn1C)C(=O)N(c1ccc3[nH]cnc3c1)C2c1ccc(N2CCC(F)(F)C2)cc1F (centres unmarked) [FRPPO-028A] | < 1000 nM | > 40% | < 25 nM | 25 to 100 nM
Cc1c2c(nn1C)C(=O)N(c1ccc3[nH]cnc3c1)C2c1ccc2nsnc2c1 (centres unmarked) [FRPPO-020] | 1000 to 5000 nM | > 40% | < 25 nM | 25 to 100 nM
Cc1c2c(nn1C)C(=O)N(c1ccc3[nH]cnc3c1)C2c1ccc(N2CCC(C)(C)C2=O)cc1 (centres unmarked) [FRPPO-010] | 1000 to 5000 nM | > 40% | 25 to 100 nM | 25 to 100 nM
CCCOc1ccc(C2c3c(nn(C)c3C)C(=O)N2c2ccn3ccnc3c2)cc1 (centres unmarked) [FRPPO-009] | 1000 to 5000 nM | > 40% | 25 to 100 nM | 100 to 5000 nM
